Reference: patent US20060178307A1, “Modulation of NMDA receptor currents via orexin receptor and/or CRF receptor” (priority 2005, published 2006)
“Also recorded” adds a separate entry of the source. Where no end group is shown, it is not given here.

Assays:
locomotor activity = experiment: Locomotor sensitization to cocaine, intra-VTA OXR1 antagonist, 7-day paradigm; type: in vivo, Sprague-Dawley rats
Method: Male Sprague-Dawley rats (250 grams) were implanted with bilateral cannulae directed at the VTA (AP, −5.2; ML, ±0.5, DV −8.0). Following recovery from surgery, animals were tested in a cocaine sensitization assay similar to that used for systemic administration of the OXR1 antagonist, but with two changes: a 7-day sensitization paradigm was used, and the OXR1 antagonist SB 334867 was microinjected directly into the VTA (6 μg/hemisphere in 300 nL solution composed of 10% DMSO in water). All other methods for habituation and data collection were identical to that described above. Rats were deeply anesthetized with pentobarbital, and perfused with a 10% formaldehyde solution. Brains were cryoprotected in 25% sucrose, 40 μm coronal sections were cut on a freezing microtome, and sections were mounted, dried and coverslipped. Injection sites were located under a light microscope and recorded on atlas figures adapted from Paxinos and Watson (1997).

[1] = system: NMDAR-mediated EPSCs in VTA dopamine neurons; experiment: Evoked NMDAR-mediated EPSCs, whole-cell voltage clamp at +40 mV, VTA neurons in midbrain slices; type: cell-based, rat; conditions: for effect on orexin A-mediated potentiation of NMDAR EPSCs: antagonist 1 μM, n=8 (FIG. 1C)
Method: Excitatory postsynaptic currents (EPSCs) were recorded from VTA neurons in rat midbrain slices. EPSCs were evoked while holding neurons in voltage clamp at +40 mV. Measurements were taken 20 ms after the stimulus artifact, a time point at which the glutamatergic EPSC is mediated purely by NMDARs.
The patch pipette was loaded with the PLC inhibitor, U-73122 (1 μM, FIG. 2A, C, n=6) or the PKC inhibitor, chelerythrin (1 μM, FIG. 1A, B, n=6). […] Next, the protein kinase A inhibitor, PKI (20 μM, FIG. 2A, F, n=8) or Rp-cAMPs, a blocker of cAMP (100 μM, FIG. 2A, E, n=5) was added to the patch pipette.
Activation of PKC is implicated in NMDAR-dependent long-term potentiation (Malinow et al., 1989) and it modulates NMDAR trafficking to the membrane (Lan et al., 2001; Scott et al., 2001; Fong et al., 2002). NMDARs can translocate from intracellular or extrasynaptic pools to synaptic sites (Lan et al., 2001; Tovar and Westbrook, 2002). […] In a separate group of slices, orexin A (100 nM, n=6) was applied for 5 min during the washout period.
All of the electrophysiological recordings were performed in rats ranging from P21 to P30. Briefly, rats were anesthetized with halothane and sacrificed. Horizontal sections of the VTA ([…]) were prepared with a vibratome (Leica, Nussloch, Germany). Slices were placed in a holding chamber and allowed to recover for at least 1 hour before being placed in the recording chamber and superfused with bicarbonate-buffered solution (ACSF) saturated with 95% O2/5% CO2 and containing (in mM): 119 NaCl, 1.6 KCl, 1.0 NaH2PO4, 1.3 MgCl2, 2.5 CaCl2, 26.2 NaHCO3 and 11 glucose (at 32-34° C.). Picrotoxin (100 μM) was added to block GABAA receptor-mediated inhibitory postsynaptic currents. Cells were visualized using infrared differential interference contrast video microscopy. Whole-cell voltage clamp recordings were made using an Axopatch 1D amplifier (Axon Instruments, Union City, Calif.). Electrodes (2.8-4.0 MΩ) contained (in mM): 120 Cesium Methansulfonate, 20 HEPES, 0.4 EGTA, 2.8 NaCl, 5 TEA-Cl, 2.5 MgATP, and 0.25 NaGTP, pH 7.2-7.3 (270-285 mOsm). Series resistance (10-40 MΩ) and input resistance were monitored on-line with a 4-mV depolarizing step (50 ms) given just after every afferent stimulus. Dopaminergic VTA neurons were identified by the presence of a large Ih current (Lacey et al., 1990; Johnson and North, 1992) and, in some cases, tyrosine hydroxylase labeling. A bipolar stimulating electrode was placed 100-300 μm rostral to the recording electrode and was used to stimulate excitatory afferents at 0.1 Hz. Neurons were voltage-clamped at −70 mV and +40 mV to record AMPAR- and NMDAR-mediated EPSCs.

NMDA-induced current = experiment: Holding current change on bath-applied NMDA; type: cell-based, rat; conditions: NMDA 50 μM 30 sec
Method: As a final test to determine at what time point after orexin treatment NMDARs were altered, NMDA (50 μM, 30 sec) was bath-applied, and the change in holding current was recorded. There was a significant increase in NMDA-induced current 15 min after orexin A (100 nM) application (orexin A: 344±27 pA, n=7; control: 245±43, n=9, p<0.05, FIG. 7H), but not after 3-4 hours (orexin A: 305±59, n=6; p>0.05, FIG. 7I).

AMPAR mEPSCs = experiment: AMPAR-mediated miniature EPSCs (mEPSCs) in VTA neurons; type: cell-based, rat
Method: Next, to investigate whether AMPAR function and/or number was modified with orexin A treatment, AMPAR-mediated miniature EPSCs (mEPSCs) were examined (a standard method for determining the locus of synaptic change). Compared to untreated neurons, orexin A (100 nM) caused a significant increase in both amplitude (FIG. 6C,D,F) and frequency (FIG. 6C,E,G) 3-4 hours after application (24±1.6 pA; 2.4±0.5 Hz; n=7 vs control: 13±1.3 pA; 0.93±0.16 Hz; n=7; FIG. 6A), but not at 15 min (15±1.7 pA; 0.9±0.1 Hz; n=[…], FIG. 6B).
AMPAR mEPSCs were recorded in cells voltage-clamped at −70 mV in lidocaine (500 μM), APV (50 μM) and sucrose (100 mM). NMDAR mEPSCs were recorded at −40 mV in Mg2+-free external solution with lidocaine (500 μM), glycine (20 μM), and CNQX (10 μM). mEPSCs were collected using Clampex (Axon Instruments) and analyzed using Mini Analysis Program (Synaptosoft). Detection criteria were set at >10 pA, <1 ms rise-time, and <3 ms decay-time for AMPAR mEPSCs and >10 pA, <1 ms rise-time, and <10 ms decay-time for NMDAR mEPSCs. mEPSC traces were recorded while sampling every 10 μs, the images were filtered at 5 kHz. Averaged mEPSCs were constructed using Mini Analysis Program (Synaptosoft).

[2] = orexin A 100 nM in the presence of ifenprodil 3 μM, n=6
[3] = 3-4 hours after orexin A 100 nM, n=7
[4] = 3-4 hours after orexin A, APV 50 μM applied 3 min prior and during orexin, n=7
[5] = 15 min after orexin A 100 nM, n=6

With Cc1nc2ccc(NC(=O)Nc3ccnc4cccnc34)cc2o1.Cl [SB 334867, 1-(2-methylbenzoxazol-6-yl)-3-[1,5]naphthyridin-4-yl urea hydrochloride] the “development of locomotor sensitization to cocaine” value (locomotor activity; daily intra-VTA 6 μg/hemisphere prior to cocaine 15 mg/kg, 7 days) was “abolished”, the “mean locomotor distance on day 7” value (locomotor activity; intra-VTA OXR1 antagonist 6 μg/hemisphere + cocaine) was 19274±4559 cm and the “expression of pre-existing cocaine sensitization” value (locomotor activity; single intra-VTA injection) was “did not affect”. The “effect on orexin A-mediated potentiation of NMDAR EPSCs” value ([1]; hydrochloride) was “significantly inhibited” and the “effect on orexin A-mediated potentiation of NMDAR EPSCs” value ([1]; listed as SB 334857, hydrochloride) was “blocked”.

In the case of “orexin A: neuropeptide synthesized in neurons of the LH; orexin receptor agonist selective for the OXR1 receptor (QPLPDCCRQKTCSCRLYELLHGAGNHAAGILTL; ends and bridges not checked; cysteine pairing not given here; UniProt O43612 34-66, looked up)”, the NMDA-induced current (NMDA-induced current; 3-4 hours after orexin A, n=6) is reported as 305±59 pA, the NMDA-induced current (NMDA-induced current; 15 min after orexin A 100 nM, n=7) is reported as 344±27 pA and the “response of neurons that did not express TH” value ([1]; 2 TH-negative neurons) is reported as “neither responded”. The “NMDAR eEPSCs potentiated to a maximum of” value ([1]; 5 min co-application of orexin A 1 nM with CRF 10 nM, n=7) was 123±12%, the “NMDAR EPSC before orexin A” value ([1]; NR2A/C (NVP-AAM077 0.4 μM) and NR2B (ifenprodil 3 μM) inhibitors co-applied, n=6) was 32±5% and the “TH-containing neurons with potentiated NMDAR responses” value ([1]; biocytin-filled, tyrosine hydroxylase positive neurons) was 7/8. For the same compound, the “potentiation of NMDAR-mediated EPSCs” value ([1]; orexin A 1 nM (FIG. 1B), n=6) was 5±1%, the “potentiation of NMDARs” value ([1]; orexin A 1 nM (FIG. 14A), n=6) was 5.7±1.6% and the “potentiation of NMDAR-mediated EPSCs” value ([1]; orexin A 10 nM (FIG. 1B), n=6) was 18±3%. For the same compound, the “maximum current after MK-801 washout” value ([1]; orexin A 100 nM 5 min during washout of MK-801 10 μM, n=6) was 40±17%, the “potentiation of NMDAR-mediated EPSCs” value ([1]; orexin A 100 nM (FIG. 1B), n=6) was 42±5% and the “orexin A potentiation of NMDAR EPSCs” value ([1]; orexin A 100 nM after NVP-AAM077 0.4 μM and ifenprodil 3 μM co-application) was “largely inhibited; also recorded: blocked”. The “duration of potentiation after washout” value ([1]; orexin A 100 nM applied for 30 min) was over 40 min, the “potentiation of NMDAR EPSCs” value ([1]; orexin A 100 nM applied for 30 min, n=6) was 74±16% and the “potentiation of NMDAR-mediated EPSCs” value ([1]; orexin A 100 nM bath application 5 min (FIG. 1A), n=12) was 49±9%. For the same compound, the “maximum potentiation of NMDAR EPSCs” value ([1]; orexin A 100 nM in the presence of NVP-AAM077 0.4 μM, n=7) was 20±6%, the “effect on remaining current” value ([1]; orexin A 100 nM in the presence of NVP-AAM077, ifenprodil and PPDA) was “did not alter” and the “maximum amplitude, of baseline EPSCs” value [1, 2] was 107±16%. For the same compound, the “potentiation of NMDAR-mediated EPSCs” value [1, 2] was 36%, the “NMDAR EPSC after orexin A” value ([1]; orexin A 100 nM with NVP-AAM077 0.4 μM and ifenprodil 3 μM co-applied, n=6) was 45±12% and the “neurons with potentiation greater than 10% / neurons recorded” value ([1]; orexin A 100 nM, 5 min) was 10/12. For the same compound, the “maximum current after MK-801 and NMDA washout” value ([1]; orexin A 5 min during washout of MK-801 20 μM + NMDA 500 μM, n=6) was 20±2%, the “maximum potentiation of NMDARs” value ([1]; orexin A in the presence of Zn2+ (300 nM), n=5) was 14±4% and the “AMPAR mEPSC amplitude” value (AMPAR mEPSCs; [3]) was 24±1.6 pA. The “AMPAR mEPSC frequency” value (AMPAR mEPSCs; [3]) was 2.4±0.5 Hz, the “AMPAR mEPSC amplitude” value (AMPAR mEPSCs; [4]) was 16±0.6 pA and the “AMPAR mEPSC frequency” value (AMPAR mEPSCs; [4]) was 1.6±0.3 Hz. The “AMPAR mEPSC amplitude” value (AMPAR mEPSCs; [5]) was 15±1.7 pA and the “AMPAR mEPSC frequency” value (AMPAR mEPSCs; [5]) was 0.9±0.1 Hz.
